Assay results as given in PubChem BioAssay AID256 (DTP/NCI, 2004).
“And” between values parts separate entries of the source, which are not always exact repeats. Equal values may be shown once. Inconclusive results and toxic doses are left out.

Tested on: CD2F1 mice, L1210 leukemia ip, survival T/C
Assay: NCI In Vivo Anticancer Drug Screen. Data for tumor model L1210 Leukemia (intraperitoneal) in CD2F1 (CDF1) mice
Settings: higher = longer survival
Method: The antitumor activity of compounds was measured in mice bearing transplantable tumors. Survival or tumor size were measured and the results are expressed as the measurement made in the treated group (T) divided by the measurement made in the vehicle treated control group (C). The tumor model used in this assay is L1210 Leukemia (intraperitoneal) in CD2F1 (CDF1) mice

[1] = endpoint: mean survival time, dose: 100.0 mg/kg/injection, schedule: Q04DX003 (ip), vehicle: saline with Tween-80
[2] = endpoint: mean survival time, dose: 200.0 mg/kg/injection, schedule: Q04DX003 (ip), vehicle: saline with Tween-80
[3] = endpoint: mean survival time, dose: 400.0 mg/kg/injection, schedule: Q04DX003 (ip), vehicle: saline with Tween-80
[4] = endpoint: mean survival time, dose: 6.25 mg/kg/injection, schedule: Q01DX009 (ip), vehicle: saline with Tween-80
[5] = endpoint: mean survival time, dose: 12.5 mg/kg/injection, schedule: Q01DX009 (ip), vehicle: saline with Tween-80
[6] = endpoint: mean survival time, dose: 25.0 mg/kg/injection, schedule: Q01DX009 (ip), vehicle: saline with Tween-80
[7] = endpoint: mean survival time, dose: 25.0 mg/kg/injection, schedule: Q04DX003 (ip), vehicle: saline with Tween-80
[8] = endpoint: mean survival time, dose: 100.0 mg/kg/injection, schedule: Q01DX001 (ip), vehicle: saline with Tween-80
[9] = endpoint: mean survival time, dose: 100.0 mg/kg/injection, schedule: Q01DX009 (ip), vehicle: saline with Tween-80
[10] = endpoint: mean survival time, dose: 100.0 mg/kg/injection, schedule: Q04DX002 (ip), vehicle: saline with Tween-80
[11] = endpoint: mean survival time, dose: 200.0 mg/kg/injection, schedule: Q01DX001 (ip), vehicle: saline with Tween-80
[12] = endpoint: mean survival time, dose: 200.0 mg/kg/injection, schedule: Q01DX009 (ip), vehicle: saline with Tween-80
[13] = endpoint: mean survival time, dose: 200.0 mg/kg/injection, schedule: Q04DX002 (ip), vehicle: saline with Tween-80
[14] = endpoint: mean survival time, dose: 400.0 mg/kg/injection, schedule: Q01DX001 (ip), vehicle: saline with Tween-80
[15] = endpoint: mean survival time, dose: 400.0 mg/kg/injection, schedule: Q01DX009 (ip), vehicle: saline with Tween-80
[16] = endpoint: mean survival time, dose: 400.0 mg/kg/injection, schedule: Q04DX002 (ip), vehicle: saline with Tween-80

COc1cccc(C(=O)c2ccncc2C(=O)O)c1OC
T/C (endpoint: mean survival time, dose: 12.5 mg/kg/injection, schedule: Q01DX009 (ip), vehicle: other): 110 % of control | T/C (endpoint: mean survival time, dose: 25.0 mg/kg/injection, schedule: Q01DX009 (ip), vehicle: other): 100 % of control | T/C (endpoint: mean survival time, dose: 50.0 mg/kg/injection, schedule: Q01DX009 (ip), vehicle: other): 93 % of control | T/C (endpoint: mean survival time, dose: 100.0 mg/kg/injection, schedule: Q01DX009 (ip), vehicle: other): 96 % of control | T/C (endpoint: mean survival time, dose: 200.0 mg/kg/injection, schedule: Q01DX009 (ip), vehicle: other): 96 % of control

NN1CCCCC1
T/C (endpoint: mean survival time, dose: 100.0 mg/kg/injection, schedule: Q04DX002 (ip), vehicle: saline): 103 % of control | T/C (endpoint: mean survival time, dose: 200.0 mg/kg/injection, schedule: Q04DX002 (ip), vehicle: saline): 95 % of control

NCCCNC(=O)OCc1ccccc1
T/C (endpoint: mean survival time, dose: 100.0 mg/kg/injection, schedule: Q01DX001 (ip), vehicle: saline): 105 % of control | T/C (endpoint: mean survival time, dose: 200.0 mg/kg/injection, schedule: Q01DX001 (ip), vehicle: saline): 102 % of control | T/C (endpoint: mean survival time, dose: 400.0 mg/kg/injection, schedule: Q01DX001 (ip), vehicle: saline): 102 % of control

CCC(C)(O)Cc1cnccn1 (centres undefined)
T/C (endpoint: mean survival time, dose: 100.0 mg/kg/injection, schedule: Q01DX009 (ip), vehicle: saline): 108 % of control | T/C (endpoint: mean survival time, dose: 200.0 mg/kg/injection, schedule: Q01DX009 (ip), vehicle: saline): 97 % of control | T/C (endpoint: mean survival time, dose: 400.0 mg/kg/injection, schedule: Q01DX009 (ip), vehicle: saline): 96 % of control

CC(=O)NO
T/C (endpoint: median survival time, dose: 25.0 mg/kg/injection, schedule: Q03HX024 (ip), vehicle: water): 104 % of control | T/C (endpoint: median survival time, dose: 50.0 mg/kg/injection, schedule: Q01DX009 (ip), vehicle: water): 101 % of control | T/C (endpoint: median survival time, dose: 50.0 mg/kg/injection, schedule: Q03HX024 (ip), vehicle: water): 105 % of control | T/C (endpoint: median survival time, dose: 62.5 mg/kg/injection, schedule: Q01DX009 (ip), vehicle: saline): 111 % of control | T/C (endpoint: median survival time, dose: 62.5 mg/kg/injection, schedule: Q01DX009 (ip), vehicle: water): 99 % of control | T/C (endpoint: median survival time, dose: 100.0 mg/kg/injection, schedule: Q01DX009 (ip), vehicle: water): 105 % of control | T/C (endpoint: median survival time, dose: 100.0 mg/kg/injection, schedule: Q03HX024 (ip), vehicle: water): 114 % of control | T/C (endpoint: median survival time, dose: 125.0 mg/kg/injection, schedule: Q01DX009 (ip), vehicle: saline): 111 % of control | T/C (endpoint: median survival time, dose: 125.0 mg/kg/injection, schedule: Q01DX009 (ip), vehicle: water): 101 % of control | T/C (endpoint: median survival time, dose: 250.0 mg/kg/injection, schedule: Q01DX009 (ip), vehicle: saline): 118 % of control | T/C (endpoint: median survival time, dose: 250.0 mg/kg/injection, schedule: Q01DX009 (ip), vehicle: water): 111 % of control | T/C (endpoint: median survival time, dose: 400.0 mg/kg/injection, schedule: Q01DX009 (ip), vehicle: water): 152 % of control | T/C (endpoint: median survival time, dose: 400.0 mg/kg/injection, schedule: Q03HX024 (ip), vehicle: water): 241 % of control | T/C (endpoint: median survival time, dose: 500.0 mg/kg/injection, schedule: Q01DX009 (ip), vehicle: saline): 152 % of control | T/C (endpoint: median survival time, dose: 800.0 mg/kg/injection, schedule: Q01DX009 (ip), vehicle: water): 173 % of control and 183 % of control | T/C (endpoint: median survival time, dose: 1000.0 mg/kg/injection, schedule: Q01DX009 (ip), vehicle: saline): 172 % of control

Clc1ccc(-n2cccc2)cc1
T/C [1]: 98 % of control | T/C [2]: 91 % of control | T/C [3]: 98 % of control

O=C1/C(=C(/c2ccccc2)N2CCOCC2)Cc2ccccc21
T/C [4]: 90 % of control | T/C (endpoint: mean survival time, dose: 6.25 mg/kg/injection, schedule: Q04DX003 (ip), vehicle: saline with Tween-80): 99 % of control | T/C [5]: 97 % of control | T/C (endpoint: mean survival time, dose: 12.5 mg/kg/injection, schedule: Q04DX003 (ip), vehicle: saline with Tween-80): 91 % of control | T/C [6]: 92 % of control | T/C [7]: 98 % of control

O=C(NC(=S)Nc1cccc2c(O)cccc12)c1cccc(Br)c1
T/C [8]: 88 % of control and 91 % of control | T/C [9]: 86 % of control and 98 % of control | T/C [10]: 90 % of control and 91 % of control | T/C [1]: 94 % of control | T/C [11]: 88 % of control and 92 % of control | T/C [12]: 103 % of control and 108 % of control | T/C [13]: 91 % of control and 94 % of control | T/C [2]: 94 % of control | T/C [14]: 88 % of control and 90 % of control | T/C [15]: 116 % of control and 108 % of control | T/C [16]: 90 % of control and 95 % of control | T/C [3]: 94 % of control

Nc1nc(N)nc(CBr)n1
T/C (endpoint: mean survival time, dose: 3.13 mg/kg/injection, schedule: Q01DX001 (ip), vehicle: Klucel (hydroxypropylcellulose) (HPC)): 98 % of control | T/C (endpoint: mean survival time, dose: 6.25 mg/kg/injection, schedule: Q01DX001 (ip), vehicle: Klucel (hydroxypropylcellulose) (HPC)): 98 % of control | T/C (endpoint: mean survival time, dose: 12.5 mg/kg/injection, schedule: Q01DX001 (ip), vehicle: Klucel (hydroxypropylcellulose) (HPC)): 88 % of control

Cc1ccc(Cl)cc1NC(=S)NC(=O)COc1ccccc1
T/C [5]: 98 % of control and 106 % of control | T/C [6]: 98 % of control | T/C [7]: 100 % of control | T/C (endpoint: mean survival time, dose: 50.0 mg/kg/injection, schedule: Q01DX001 (ip), vehicle: saline with Tween-80): 97 % of control | T/C (endpoint: mean survival time, dose: 50.0 mg/kg/injection, schedule: Q04DX003 (ip), vehicle: saline with Tween-80): 96 % of control | T/C [8]: 89 % of control | T/C [10]: 87 % of control | T/C [1]: 90 % of control | T/C [11]: 88 % of control | T/C [13]: 98 % of control

CC1(C)OCC(C2CCC3(C)C4=CCC5C(C)(C)C(O)CCC5(C)C4CCC23C)CC(O)C1O (centres undefined)
T/C (endpoint: mean survival time, dose: 2.5 mg/kg/injection, schedule: Q01DX009 (ip), vehicle: Klucel (hydroxypropylcellulose) (HPC)): 101 % of control | T/C (endpoint: mean survival time, dose: 5.0 mg/kg/injection, schedule: Q01DX009 (ip), vehicle: Klucel (hydroxypropylcellulose) (HPC)): 95 % of control | T/C (endpoint: mean survival time, dose: 10.0 mg/kg/injection, schedule: Q01DX009 (ip), vehicle: Klucel (hydroxypropylcellulose) (HPC)): 97 % of control

CC(CNCCN)C[Si](C)(C)C (centres undefined)
T/C [4]: 100 % of control | T/C [5]: 98 % of control | T/C [6]: 104 % of control

CCOC(=O)C(OCC)c1ccccc1 (centres undefined)
T/C [9]: 105 % of control | T/C [12]: 101 % of control | T/C [15]: 95 % of control

Cc1ccc2c(c1)C(c1ccccc1)(c1ccccc1)OC2=O
T/C [1]: 98 % of control | T/C [2]: 91 % of control | T/C [3]: 95 % of control

COc1ccc2c(NCCCCCCCCNc3c4ccccc4nc4cc(OC)ccc34)c3ccccc3nc2c1
T/C (endpoint: mean survival time, dose: 0.47 mg/kg/injection, schedule: Q01DX009 (ip), vehicle: distilled water + alcohol): 116 % of control | T/C (endpoint: mean survival time, dose: 0.94 mg/kg/injection, schedule: Q01DX009 (ip), vehicle: distilled water + alcohol): 120 % of control and 112 % of control | T/C (endpoint: mean survival time, dose: 1.87 mg/kg/injection, schedule: Q01DX009 (ip), vehicle: distilled water + alcohol): 120 % of control | T/C (endpoint: mean survival time, dose: 1.88 mg/kg/injection, schedule: Q01DX009 (ip), vehicle: distilled water + alcohol): 113 % of control and 112 % of control | T/C (endpoint: median survival time, dose: 0.5 mg/kg/injection, schedule: Q01DX009 (ip), vehicle: distilled water + alcohol): 120 % of control | T/C (endpoint: median survival time, dose: 1.0 mg/kg/injection, schedule: Q01DX009 (ip), vehicle: distilled water + alcohol): 118 % of control | T/C (endpoint: median survival time, dose: 2.0 mg/kg/injection, schedule: Q01DX009 (ip), vehicle: distilled water + alcohol): 121 % of control | T/C (endpoint: median survival time, dose: 4.0 mg/kg/injection, schedule: Q01DX009 (ip), vehicle: distilled water + alcohol): 124 % of control

Clc1cc(Cl)c(OCC#CI)c(Cl)c1Cl
T/C (endpoint: mean survival time, dose: 50.0 mg/kg/injection, schedule: Q01DX001 (ip), vehicle: carboxymethylcellulose (CMC)): 100 % of control | T/C (endpoint: mean survival time, dose: 100.0 mg/kg/injection, schedule: Q01DX001 (ip), vehicle: carboxymethylcellulose (CMC)): 100 % of control | T/C (endpoint: mean survival time, dose: 200.0 mg/kg/injection, schedule: Q01DX001 (ip), vehicle: carboxymethylcellulose (CMC)): 100 % of control | T/C (endpoint: mean survival time, dose: 400.0 mg/kg/injection, schedule: Q01DX001 (ip), vehicle: carboxymethylcellulose (CMC)): 103 % of control

CC(=O)c1ccc2c([N+](=O)[O-])ccc3c2c1CC3
T/C [8]: 97 % of control | T/C [11]: 91 % of control | T/C [14]: 94 % of control

C/C(=C\CC(=O)C/C=C(\C)CCCC(C)CCCC(C)CCCC(C)C)CCCC(C)CCCC(C)CCCC(C)C (centres undefined)
T/C [10]: 103 % of control | T/C [13]: 103 % of control | T/C [16]: 96 % of control

Cc1ccc([Si](OO[Si](c2ccccc2)(c2ccccc2)c2ccc(C)cc2)(c2ccccc2)c2ccccc2)cc1
T/C [9]: 98 % of control | T/C [1]: 98 % of control | T/C [12]: 93 % of control | T/C [2]: 100 % of control | T/C [15]: 95 % of control | T/C [3]: 98 % of control
